Some results are limits rather than exact numbers.

The nature of this series: stability in human hepatocytes. It is filed as in vitro ADME. As for the experimental part: Stability of LIT-001 was determined in human hepatocytes. Cells were unfrozen and their viability measured (Tryptan blue). Cells are suspended (2 × 10^6 cells/ml) and dispensed in 96 well microtiterplates (50 μl/well). LIT-001 (50 μl of a 2 μM in the incubation media) was added. The final concentration of the compound was 1 μM in 1 × 10^6 cells/ml. The incubation volume was 100 μl/well. Incubations were stopped after 0, 4, 20, 40, 80 and 120 min in mixing the well content with 100 μl acetonitrile at 0 °C. A positive control (testosterone) was prepared in same conditions. All samples were analyzed by LC-MS/MS (UHPLC coupled to a triple quadripole Shimadzu LC-MS 8030). Each measurement was performed in triplicate.

One may read the half-life as the time in which the quantity being followed falls by half. Higher therefore signals slow loss. On to `Cc1cc(C(=O)N2Cc3cnn(C)c3Nc3ccccc32)ccc1CNC(=O)N1CCC[C@H]1C(=S)N(C)C` [LIT-001], for which, under “1 μM, 37 °C, after 2 hours”, the “degradation on human hepatocytes” value is listed as “no degradation was observed”. In addition, where the note is “human, human hepatocytes (cryopreserved, suspension), from in vitro stability results”, the half-life at 1 μM was more than 2 h.

The record behind these values is publication PMC7033278, “A Nonpeptide Oxytocin Receptor Agonist for a Durable Relief of Inflammatory Pain” (Scientific Reports, 2020).
